In patent US11554113B2, “Methods for treating disorders or diseases associated with hyperlipidemia and hypercholesterolemia while minimizing side-effects” (The Trustees of the University of Pennsylvania, priority 2004, dated 2023):
pIC50: −log10 of the molar value. Read-outs that look alike come from different tables or passages of the source. Blank lines part the entries; values can stand above or below the compound they belong to.

Legend:
[1] = molecular target: microsomal triglyceride transfer protein (MTP) (Homo sapiens, UniProt P55157); settings: for mean percent change in apoB / mean percent change in non-HDL cholesterol / mean percent change in total cholesterol: 6 hoFH subjects
Description: This theory was applied in designing a study investigating the safety, tolerability and efficacy of BMS-201038 in patients with homozygous familial hypercholesterolemia (hoFH).
Subjects received once daily dosing of 4 doses of BMS-201038 (0.03, 0.1, 0.3 and 1.0 mg/kg) for 4 weeks at each dose. We chose an initial low dose (0.03 mg/kg) that while not expecting to be efficacious, would be a dose that would be expected to be safe and well tolerated (˜2.1 mg in the 70 kg person) The remaining three doses were chosen by calculating ½ log units of the previous dose.

[2] = tested on: apoB secretion; settings: cell culture studies; read-out: IC50 for inhibition of apoB secretion; cited from earlier work
[3] = tested on: apoAI secretion; settings: cell culture studies; read-out: IC50 for inhibition of apoAI secretion; cited from earlier work
[4] = rats, cited from earlier work
[5] = dogs, six-month toxicity study, doses 0-10 mg/kg; cited from earlier work
[6] = tested on: cholesterol levels; settings: cited from earlier work
[7] = tested on: low density lipoprotein cholesterol (LDL-C); settings: cited from earlier work
[8] = 25 mg per day for 4 weeks, primary hypercholesterolemia, some patients; cited from earlier work
[9] = tested on: LDL-C; settings: cited from earlier work
[10] = tested on: cholesterol; settings: in vivo; cited from earlier work
[11] = 0.3 mg/kg once daily for 4 weeks (second highest dose)
[12] = 1.0 mg/kg once daily for 4 weeks (highest dose)
[13] = dose of 10 mg/kg, rabbits that lack a functional LDL receptor

microsomal triglyceride transfer protein (MTP), sequence (P55157 19-894): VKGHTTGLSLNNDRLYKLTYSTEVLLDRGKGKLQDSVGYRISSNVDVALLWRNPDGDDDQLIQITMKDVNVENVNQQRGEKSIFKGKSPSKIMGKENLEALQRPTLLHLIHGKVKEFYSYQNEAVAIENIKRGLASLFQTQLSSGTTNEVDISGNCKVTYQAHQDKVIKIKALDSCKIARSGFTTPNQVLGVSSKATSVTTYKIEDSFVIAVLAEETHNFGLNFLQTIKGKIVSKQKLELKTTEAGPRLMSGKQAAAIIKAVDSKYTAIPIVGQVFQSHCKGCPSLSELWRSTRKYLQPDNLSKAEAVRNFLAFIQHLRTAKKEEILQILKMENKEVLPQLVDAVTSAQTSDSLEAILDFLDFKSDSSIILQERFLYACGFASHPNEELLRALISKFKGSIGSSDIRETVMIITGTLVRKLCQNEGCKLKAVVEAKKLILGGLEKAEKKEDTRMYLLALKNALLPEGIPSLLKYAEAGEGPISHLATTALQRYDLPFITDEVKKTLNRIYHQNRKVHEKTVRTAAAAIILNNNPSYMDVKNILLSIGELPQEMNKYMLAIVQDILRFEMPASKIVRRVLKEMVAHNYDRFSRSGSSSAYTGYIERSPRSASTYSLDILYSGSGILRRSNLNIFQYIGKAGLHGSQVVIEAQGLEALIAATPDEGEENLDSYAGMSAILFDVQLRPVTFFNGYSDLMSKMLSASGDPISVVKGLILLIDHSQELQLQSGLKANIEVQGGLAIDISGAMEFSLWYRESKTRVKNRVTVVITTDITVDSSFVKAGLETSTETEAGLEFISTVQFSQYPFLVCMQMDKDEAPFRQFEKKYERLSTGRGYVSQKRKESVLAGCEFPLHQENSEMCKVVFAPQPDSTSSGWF
microsomal triglyceride transfer protein (MTP), sequence (P07237 18-508 partner): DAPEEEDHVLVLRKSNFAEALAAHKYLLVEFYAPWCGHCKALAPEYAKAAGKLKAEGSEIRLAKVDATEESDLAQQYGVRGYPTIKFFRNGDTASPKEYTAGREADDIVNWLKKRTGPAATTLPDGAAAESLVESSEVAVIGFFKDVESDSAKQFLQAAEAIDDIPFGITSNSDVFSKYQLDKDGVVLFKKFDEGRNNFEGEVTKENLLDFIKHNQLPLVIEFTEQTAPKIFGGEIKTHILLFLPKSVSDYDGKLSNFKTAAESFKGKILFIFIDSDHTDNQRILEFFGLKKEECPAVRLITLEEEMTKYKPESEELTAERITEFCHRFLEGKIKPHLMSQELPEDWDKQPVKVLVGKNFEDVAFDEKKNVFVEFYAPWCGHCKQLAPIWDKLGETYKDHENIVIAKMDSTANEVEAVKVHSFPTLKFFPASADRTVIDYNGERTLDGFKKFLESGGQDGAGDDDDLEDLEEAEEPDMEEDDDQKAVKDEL

mean percent change in apoB [1, 11]: −15±16% | mean percent change in non-HDL cholesterol [1, 11]: −31±9% | mean percent change in total cholesterol [1, 11]: −30±9% | mean percent change in apoB [1, 12]: −55±13% | mean percent change in non-HDL cholesterol [1, 12]: −60±8.8% | mean percent change in total cholesterol [1, 12]: −58±8.5% | increase in hepatic fat by NMRS from baseline to 4 weeks on 1 mg/kg ([1]; human, in vivo, 4 weeks): 3-37%
SMILES: O=C(NC1CCN(CCCCC2(C(=O)NCC(F)(F)F)c3ccccc3-c3ccccc32)CC1)c1ccccc1-c1ccc(C(F)(F)F)cc1 [BMS-201038, N-(2,2,2-Trifluorethyl)-9-[4-[4-[[[4′-(trifluoromethyl) [1,1′biphenyl]-2-Y1]carbonyl]amino]-1-piperidinyl]butyl]9H-fluorene-9-carboxamide, methanesulfonate]
pIC50 [2]: 9.10 | pIC50 [3]: 5.19 | doses associated with subacute inflammation and single-cell necrosis of hepatocytes and histiocytosis (phospholipidosis) in the lungs ([4]; six-month toxicity study, doses 0-20 mg/kg): ≥ 0.2 mg/kg | hepatic accumulation of lipids at the end of a 1-month washout period [4]: reversed | subacute inflammation and single-cell necrosis of hepatocytes and histiocytosis (phospholipidosis) in the lungs [5]: not in dogs | LDL cholesterol reduction ([6]; 10 mg/kg, animal study by Wetterau and colleagues): greater than 80% | cholesterol levels [6, 13]: essentially normalized | plasma AST or ALT [6, 13]: no alteration | ED50 value for lowering cholesterol ([6]; rabbits that lack a functional LDL receptor): 1.9 mg/kg | reduction of low density lipoprotein cholesterol (LDL-C) ([7]; healthy volunteers with hypercholesterolemia): up to 65% | doses at which gastrointestinal side effects/steatorrhea, elevation of serum transaminases and hepatic fat accumulation were primarily observed ([7]; human clinical development): ≥ 25 mg/day | gastrointestinal (GI) symptoms (steatorrhea, abdominal cramping and distention) [8]: clinically significant

SMILES: CC(C)c1c(C(=O)Nc2ccccc2)c(-c2ccccc2)c(-c2ccc(F)cc2)n1CC[C@@H](O)C[C@@H](O)CC(=O)O [atorvastatin]
mean LDL-C reduction ([9]; genotype-confirmed hoFH, maximal dose of statins 80 mg/day): about 5.5%

SMILES: O=C1[C@H](CC[C@H](O)c2ccc(F)cc2)[C@@H](c2ccc(O)cc2)N1c1ccc(F)cc1 [ezetimibe]
total reduction of LDL-C levels ([9]; ezetimibe 10 mg/day added to atorvastatin or simvastatin 80 mg/day, hoFH): 27% | reduction of LDL cholesterol [10]: about 18%
